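Test compounds were applied to cells in 96-well plates for 48 hours at 5 doses. Abbreviation: GI50, concentration required for 50% inhibition of growth.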 Calls of active or inactive are those of the source. Rule as the data show it: active = GI50 up to about 1.1 µM and inactive = higher.
Experiments:
Experiment in all cases: NCI-60 cell line screen, 48 h
SF-268 = test system: SF-268
SNB-19 = test system: SNB-19
SF-539 = test system: SF-539
OVCAR-3 = test system: OVCAR-3
OVCAR-4 = test system: OVCAR-4
MCF7 = test system: MCF7
HCT-15 = test system: HCT-15
SNB-75 = test system: SNB-75
SK-MEL-2 = test system: SK-MEL-2
Hs-578T = test system: Hs-578T
HOP-62 = test system: HOP-62
NCI/ADR-RES = test system: NCI/ADR-RES
HOP-92 = test system: HOP-92
SW-620 = test system: SW-620
IGROV-1 = test system: IGROV-1
LOX IMVI = test system: LOX IMVI
UO-31 = test system: UO-31
SK-MEL-28 = test system: SK-MEL-28
U-251 = test system: U-251
NCI-H226 = test system: NCI-H226
M14 = test system: M14
MDA-MB-435 = test system: MDA-MB-435
ACHN = test system: ACHN
CAKI-1 = test system: CAKI-1
OVCAR-5 = test system: OVCAR-5
NCI-H460 = test system: NCI-H460
BT-549 = test system: BT-549
KM12 = test system: KM12
COLO 205 = test system: COLO 205
UACC-257 = test system: UACC-257
HCT-116 = test system: HCT-116
MOLT-4 = test system: MOLT-4
OVCAR-8 = test system: OVCAR-8
786-0 = test system: 786-0
CCRF-CEM = test system: CCRF-CEM
TK-10 = test system: TK-10
PC-3 = test system: PC-3
T47D = test system: T47D
EKVX = test system: EKVX
DU-145 = test system: DU-145
HT-29 = test system: HT-29
SK-MEL-5 = test system: SK-MEL-5
A549 = test system: A549
SN12C = test system: SN12C
MDA-N = test system: MDA-N
SK-OV-3 = test system: SK-OV-3
UACC-62 = test system: UACC-62
NCI-H522 = test system: NCI-H522
NCI-H23 = test system: NCI-H23
MDA-MB-231 = test system: MDA-MB-231
SF-295 = test system: SF-295
HL-60 = test system: HL-60
A498 = test system: A498
Malme-3M = test system: Malme-3M
K562 = test system: K562
HCC 2998 = test system: HCC 2998
RPMI-8226 = test system: RPMI-8226
RXF 393 = test system: RXF 393

CC(=O)NC1C(OCc2ccccc2)OC(CO)C(O)C1OC(C)C(=O)NC(C(=O)NC(CCC(=O)NCCCNc1ccc([N+](=O)[O-])c2[nH]c3ccccc3c(=O)c12)C(N)=O)C(C)C (stereo not given)
GI50 (SF-268): > 100000 nM (inactive)
GI50 (SNB-19): > 100000 nM (inactive)
GI50 (SF-539): > 100000 nM (inactive)
GI50 (OVCAR-3): > 100000 nM (inactive)
GI50 (OVCAR-4): > 100000 nM (inactive)
GI50 (MCF7): > 100000 nM (inactive)
GI50 (HCT-15): > 100000 nM
GI50 (SNB-75): > 100000 nM (inactive)
GI50 (SK-MEL-2): > 100000 nM (inactive)
GI50 (Hs-578T): > 100000 nM (inactive)
GI50 (HOP-62): > 100000 nM (inactive)
GI50 (NCI/ADR-RES): > 100000 nM (inactive)
GI50 (HOP-92): > 100000 nM (inactive)
GI50 (SW-620): > 100000 nM (inactive)
GI50 (IGROV-1): > 100000 nM (inactive)
GI50 (LOX IMVI): > 100000 nM (inactive)
GI50 (UO-31): > 100000 nM (inactive)
GI50 (SK-MEL-28): > 100000 nM (inactive)
GI50 (U-251): > 100000 nM (inactive)
GI50 (NCI-H226): > 100000 nM (inactive)
GI50 (M14): 51900 nM (inactive)
GI50 (MDA-MB-435): > 100000 nM (inactive)
GI50 (ACHN): > 100000 nM (inactive)
GI50 (CAKI-1): > 100000 nM (inactive)
GI50 (OVCAR-5): 59600 nM (inactive)
GI50 (NCI-H460): > 100000 nM (inactive)
GI50 (BT-549): > 100000 nM (inactive)
GI50 (KM12): > 100000 nM (inactive)
GI50 (COLO 205): > 100000 nM (inactive)
GI50 (UACC-257): > 100000 nM (inactive)
GI50 (HCT-116): > 100000 nM (inactive)
GI50 (MOLT-4): > 100000 nM (inactive)
GI50 (OVCAR-8): > 100000 nM (inactive)
GI50 (786-0): > 100000 nM (inactive)
GI50 (CCRF-CEM): > 100000 nM (inactive)
GI50 (TK-10): > 100000 nM (inactive)
GI50 (PC-3): > 100000 nM (inactive)
GI50 (T47D): > 100000 nM (inactive)
GI50 (EKVX): > 100000 nM (inactive)
GI50 (DU-145): > 100000 nM (inactive)
GI50 (HT-29): > 100000 nM (inactive)
GI50 (SK-MEL-5): > 100000 nM (inactive)
GI50 (A549): > 100000 nM (inactive)
GI50 (SN12C): > 100000 nM (inactive)
GI50 (MDA-N): > 100000 nM (inactive)
GI50 (SK-OV-3): > 100000 nM (inactive)
GI50 (UACC-62): > 100000 nM (inactive)
GI50 (NCI-H522): 91600 nM (inactive)
GI50 (NCI-H23): > 100000 nM (inactive)
GI50 (MDA-MB-231): 40600 nM (inactive)
GI50 (SF-295): > 100000 nM (inactive)
GI50 (HL-60): > 100000 nM (inactive)
GI50 (A498): > 100000 nM (inactive)

CN(C)c1ccc(/C=C/C=c2/c3ccccc3n3c2cc(-c2ccccc2)[n+]3C)cc1
GI50 (SF-268): 497 nM (active)
GI50 (SNB-19): 127 nM (active)
GI50 (SF-539): 171 nM (active)
GI50 (OVCAR-3): 74.6 nM (active)
GI50 (OVCAR-4): 414 nM (active)
GI50 (MCF7): 93.5 nM (active)
GI50 (Malme-3M): 492 nM (active)
GI50 (HCT-15): 488 nM
GI50 (SNB-75): 336 nM (active)
GI50 (K562): 51.2 nM (active)
GI50 (SK-MEL-2): 4540 nM (inactive)
GI50 (HOP-62): 303 nM (active)
GI50 (NCI/ADR-RES): 3430 nM (inactive)
GI50 (HOP-92): 318 nM (active)
GI50 (SW-620): 73.1 nM (active)
GI50 (IGROV-1): 238 nM (active)
GI50 (LOX IMVI): 105 nM (active)
GI50 (UO-31): 333 nM (active)
GI50 (SK-MEL-28): 459 nM (active)
GI50 (U-251): 38.7 nM (active)
GI50 (NCI-H226): 454 nM (active)
GI50 (M14): 215 nM (active)
GI50 (MDA-MB-435): 151 nM (active)
GI50 (HCC 2998): 303 nM (active)
GI50 (ACHN): 218 nM (active)
GI50 (CAKI-1): 251 nM (active)
GI50 (OVCAR-5): 478 nM (active)
GI50 (NCI-H460): 307 nM (active)
GI50 (BT-549): 233 nM (active)
GI50 (KM12): 59.8 nM (active)
GI50 (COLO 205): 69.8 nM (active)
GI50 (UACC-257): 182 nM (active)
GI50 (HCT-116): 38.6 nM (active)
GI50 (MOLT-4): 88.1 nM (active)
GI50 (OVCAR-8): 102 nM (active)
GI50 (786-0): 252 nM (active)
GI50 (CCRF-CEM): 187 nM (active)
GI50 (TK-10): 564 nM (active)
GI50 (RPMI-8226): 149 nM (active)
GI50 (PC-3): 133 nM (active)
GI50 (T47D): 73.5 nM (active)
GI50 (EKVX): 254 nM (active)
GI50 (DU-145): 93.1 nM (active)
GI50 (HT-29): 275 nM (active)
GI50 (SK-MEL-5): 169 nM (active)
GI50 (A549): 260 nM (active)
GI50 (SN12C): 243 nM (active)
GI50 (MDA-N): 234 nM (active)
GI50 (SK-OV-3): 348 nM (active)
GI50 (UACC-62): 217 nM (active)
GI50 (NCI-H522): 54.8 nM (active)
GI50 (NCI-H23): 188 nM (active)
GI50 (MDA-MB-231): 466 nM (active)
GI50 (SF-295): 288 nM (active)
GI50 (HL-60): 75 nM (active)
GI50 (RXF 393): 63 nM (active)
GI50 (A498): 387 nM (active)
